19 compounds from US20050124607A1, “5-Substituted quinazolinone compounds useful as alpha 1A/B adrenergic receptor antagonists” (priority 2003, published 2005) can be followed below.

The structures appear in SMILES notation. Structures can show the parent of a compound that is named as a salt.

For the first data set, the target named is T1, alpha1A adrenoceptor (Homo sapiens, UniProt P35348).
T1 construct: expressed in transfected cells; host or cells: CHO-K1
T1 sequence (P35348 1-466): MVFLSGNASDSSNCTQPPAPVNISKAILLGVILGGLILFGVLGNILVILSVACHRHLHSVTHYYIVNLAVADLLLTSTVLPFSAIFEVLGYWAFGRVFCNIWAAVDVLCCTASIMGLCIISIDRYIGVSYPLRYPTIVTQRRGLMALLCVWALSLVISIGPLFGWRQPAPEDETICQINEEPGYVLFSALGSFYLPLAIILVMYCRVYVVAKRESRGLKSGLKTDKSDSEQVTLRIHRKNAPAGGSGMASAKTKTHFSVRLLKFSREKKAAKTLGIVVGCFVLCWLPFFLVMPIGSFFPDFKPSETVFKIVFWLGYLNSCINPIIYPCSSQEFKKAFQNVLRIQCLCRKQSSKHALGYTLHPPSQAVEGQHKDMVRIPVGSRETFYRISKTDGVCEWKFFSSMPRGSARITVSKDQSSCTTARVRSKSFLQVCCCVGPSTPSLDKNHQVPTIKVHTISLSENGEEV
Briefly: [3H]prazosin binding (alpha1-adrenoceptor) assay, alpha 1A. The following applies: transfected CHO-K1 cell membranes, read-out: pKi alpha 1A (converted). On the procedure: (§1) Alpha1 A, alpha1B, and alpha1D adrenoceptor transfected CHO-K1 cells, prepared using the methods described by Chang et al., FEBS Lett. 1998, 422:279-283, were grown to confluence in T-162 tissue culture flasks in Ham's F-12 culture medium supplemented with 10% fetal bovine serum, geneticin (150 μg/mL) and streptomycin/penicillin (30 μg/mL/30 μg/mL) at 37° C. in 7% CO2. Cells were harvested by incubating with phosphate-buffered saline (PBS) containing 30 μM EDTA for 5-10 min at 37° C. Cells were pelleted by centrifuging at 500×g for 5 min, and the pelleted cells were homogenized (Polytron homogenizer) in 10 vols (w/v) of 50 mM Tris, 1 mM EDTA, (homogenisation buffer, pH 7.4 at 4° C.). The homogenate was centrifuged at 45,000×g for 20 min. The pellet was resuspended in the homogenizing buffer and rehomogenized. The resulting homogenate was centrifuged at 45,000×g for 20 min. The pellet was resuspended in 50 mM Tris buffer (pH 7.4 at 4° C.), aliquoted, frozen, and stored at −80° C. for further use.
(§2) The membranes were thawed at rt and diluted in assay buffer (50 mM Tris buffer at […]) at 37° C. and homogenized using the Polytron tissue disrupter. The membranes were incubated with the radioligand ([^3H]prazosin, NEN, 0.1-0.5 nM) and test compound at 37° C. for 30 min. The membranes were then filtered over polyethyleneimine-treated GF/B unifilter plates using a Packard Filtermate Harvester and washed with ice-cold 50 mM Tris-HCl, 1 mM EDTA buffer (3×3 sec. washes). Scintillation cocktail was added to the filter plates and bound radioligand determined by liquid scintillation spectrophotometry.
(§3) For each experiment, total binding (in the absence of any test or reference compounds) and non-specific binding (10 μM phentolamine) were determined. For each sample tested, the concentration producing 50% inhibition of binding (IC50) and Hill Slope (nH) was determined using iterative non-linear curve fitting techniques with Kaleidagraph (Synergy Software) or other appropriate software. If the radioligand KD was known, the inhibition dissociation constant (KI) of each ligand was determined according to the method of Cheng and Prusoff (Cheng, Y-C. and Prusoff, W. H., Biochem.Pharmacol., 1973, 22, 3099-3108).
For the compound `COc1cc2[nH]c(N3CCC4(CC3)CN(c3ccc(F)cc3)C(=O)CO4)nc(=O)c2c(OC)c1OC`, the Ki is 6.17 nM.

The next data set addresses T2, alpha1B adrenoceptor (Homo sapiens, UniProt P35368).
T2 construct: expressed in transfected cells; host or cells: CHO-K1
T2 sequence (P35368 1-520): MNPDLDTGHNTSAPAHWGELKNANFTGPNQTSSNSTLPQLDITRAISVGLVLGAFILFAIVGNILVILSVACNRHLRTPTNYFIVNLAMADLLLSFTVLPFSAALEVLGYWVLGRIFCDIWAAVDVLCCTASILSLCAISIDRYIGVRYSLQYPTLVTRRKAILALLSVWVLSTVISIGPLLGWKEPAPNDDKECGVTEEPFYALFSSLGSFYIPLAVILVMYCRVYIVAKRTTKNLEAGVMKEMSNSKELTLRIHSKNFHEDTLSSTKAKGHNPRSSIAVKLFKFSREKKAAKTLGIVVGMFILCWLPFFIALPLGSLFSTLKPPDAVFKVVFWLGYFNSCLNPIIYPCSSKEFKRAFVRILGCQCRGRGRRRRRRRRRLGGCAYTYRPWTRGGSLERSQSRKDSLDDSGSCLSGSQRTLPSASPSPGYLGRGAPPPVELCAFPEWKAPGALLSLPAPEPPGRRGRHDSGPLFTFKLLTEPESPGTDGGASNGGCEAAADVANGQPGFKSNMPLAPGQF
Briefly: [3H]prazosin binding (alpha1-adrenoceptor) assay, alpha 1B. As to conditions: transfected CHO-K1 cell membranes, read-out: pKi alpha 1B (converted). On the procedure: as §1, §2, §3
`COc1cc2[nH]c(N3CCC4(CC3)CN(c3ccc(F)cc3)C(=O)CO4)nc(=O)c2c(OC)c1OC`: the Ki is 13.8 nM.

In the next data set the target is T3, alpha1D adrenoceptor (Homo sapiens, UniProt P25100).
T3 construct: expressed in transfected cells; host or cells: CHO-K1
T3 sequence (P25100 1-572): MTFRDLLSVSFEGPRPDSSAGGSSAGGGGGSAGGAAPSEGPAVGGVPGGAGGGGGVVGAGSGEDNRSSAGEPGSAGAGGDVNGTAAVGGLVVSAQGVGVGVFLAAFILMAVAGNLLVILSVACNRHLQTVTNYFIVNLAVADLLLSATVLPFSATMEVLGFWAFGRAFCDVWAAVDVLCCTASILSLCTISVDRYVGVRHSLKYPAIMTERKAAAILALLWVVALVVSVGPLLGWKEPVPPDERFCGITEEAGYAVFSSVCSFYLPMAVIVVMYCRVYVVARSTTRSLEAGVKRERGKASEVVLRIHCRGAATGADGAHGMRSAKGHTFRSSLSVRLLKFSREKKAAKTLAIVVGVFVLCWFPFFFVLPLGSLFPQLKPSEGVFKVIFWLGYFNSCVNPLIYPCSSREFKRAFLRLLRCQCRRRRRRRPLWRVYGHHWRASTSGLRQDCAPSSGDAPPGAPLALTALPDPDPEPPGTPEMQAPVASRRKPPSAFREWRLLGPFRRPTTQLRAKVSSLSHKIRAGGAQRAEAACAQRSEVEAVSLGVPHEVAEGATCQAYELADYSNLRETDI
Briefly: [3H]prazosin binding (alpha1-adrenoceptor) assay, alpha 1D. The following applies: transfected CHO-K1 cell membranes, read-out: pKi alpha 1D (converted). On the procedure:
as §1, §2, §3
`COc1cc2[nH]c(N3CCC4(CC3)CN(c3ccc(F)cc3)C(=O)CO4)nc(=O)c2c(OC)c1OC`: the Ki is 257 nM.

System in another data set: not given
Assay: not given
Conditions: not given
Broadly, the melting point is the temperature, or range, at which the solid turns liquid. As to `COc1cc2[nH]c(N3CCC(OCc4ccccc4S(=O)(=O)N(C)C)CC3)nc(=O)c2c(OC)c1OC` [Example 77, N,N-Dimethyl-2-[1-(5,6,7-tri-methoxy-4-oxo-1,4-di-hydro-quinazolin-2-yl)-pipe-ridin-4-yloxy-methyl]-benzene-sulfonamide], the melting point is 186 to 188.2 °C. As for `COc1cc2[nH]c(N3CCC(Cc4ccccc4)CC3)nc(=O)c2c(OC)c1OC` [Example 63, 2-(4-Benzyl-piperidin-1-yl)-5,6,7-tri-methoxy-1H-quina-zolin-4-one], the melting point fell in the range of 212 to 215 °C.

In turn, `COc1cc2[nH]c(N3CCCC3c3cccc(N4CCN=C4C)c3)nc(=O)c2c(OC)c1OC` (stereo not drawn) [Example 138, 5,6,7-Trimethoxy-2-{2-[3-(2-meth-yl-4,5-di-hydro-imidazol-1-yl)-phe-nyl]-pyrrolidin-1-yl}-1H-quina-zolin-4-one] had a melting point of 205.1 to 209.1 °C. Same read-out and setting: with `COc1cc2[nH]c(N3CCc4ccc(/N=C(\C)N(C)C)cc4C3)nc(=O)c2c(OC)c1OC` [Example 103, N,N-Dimethyl-N′-[2-(5,6,7-tri-methoxy-4-oxo-1,4-di-hydro-quinazolin-2-yl)-1,2,3,4-tetra-hydro-isoquinolin-7-yl]-acetamidine] the figure was 115.8 to 120.1 °C; with `COc1cc2c(cc1OC)CN(c1nc(=O)c3c(-c4ccc(F)cc4)c(OC)c(OC)cc3[nH]1)CC2` [Example 120, 2-(6,7-Dimethoxy-3,4-di-hydro-1H-isoquino-lin-2-yl)-5-(4-fluoro-phe-nyl)-6,7-dimethoxy-1H-quina-zolin-4-one], 220 to 225 °C; with `COc1cc2[nH]c(N3CCc4c(cccc4NC(=N)C4CCC4)C3)nc(=O)c2c(C)c1OC` [Example 123, N-[2-(6,7-Dimethoxy-5-meth-yl-4-oxo-1,4-di-hydro-quinazolin-2-yl)-1,2,3,4-tetra-hydro-isoquinolin-5-yl]-cyclo-butanecarboxamidine], 252.1 to 256.1 °C. On to `CNCc1ccc2c(c1)CN(c1nc(=O)c3c(OC)c(OC)c(OC)cc3[nH]1)CC2` [Example 4, 5,6,7-Trimethoxy-2-(7-meth-ylaminomethyl-3,4-di-hydro-1H-isoquino-lin-2-yl)-1H-quina-zolin-4-one], for which the melting point was 178.1 to 180.9 °C. In turn, `COc1cc2[nH]c(N3CCN(c4nccn4C)CC3)nc(=O)c2c(OC)c1OC` [Example 28, 5,6,7-Trimethoxy-2-[4-(1-meth-yl-1H-imidazol-2-yl)-pipe-razin-1-yl]-1H-quina-zolin-4-one] showed a melting point of 227 to 229 °C. Still for that read-out and setting: with `CCCC(=N)Nc1cccc2c1CCN(c1nc(=O)c3c(OC)c(OC)c(OC)cc3[nH]1)C2` [Example 115, N-[2-(5,6,7-Trimethoxy-4-oxo-1,4-di-hydro-quina-zolin-2-yl)-1,2,3,4-tetra-hydro-isoquinolin-5-yl]-butyramidine] the figure was 192.2 to 193.5 °C; with `COc1cc2[nH]c(N3CCc4c(ncnc4N4CCOCC4)C3)nc(=O)c2c(OC)c1OC` (as salt: HCl) [Example 135, 5,6,7-Trimethoxy-2-(4-morpho-lin-4-yl-5,8-di-hydro-6H-pyrido[3,4-d]py-rimidin-7-yl)-1H-quina-zolin-4-one], 190 to 192 °C; with `COc1cc2[nH]c(N3CCC(Cc4cccc(C(=O)O)c4)CC3)nc(=O)c2c(OC)c1OC` [Example 79, 3-[1-(5,6,7-Trimethoxy-4-oxo-1,4-di-hydro-quina-zolin-2-yl)-pipe-ridin-4-ylmethyl]-benzoic acid], 245 to 249 °C. On to `CCN(C)Cc1cccc2c1CCN(c1nc(=O)c3c(OC)c(OC)c(OC)cc3[nH]1)C2` [Example 3, 2-{5-[(Ethyl-methyl-ami-no)-methyl]-3,4-di-hydro-1H-isoquinolin-2-yl}-5,6,7-tri-methoxy-1H-quinazolin-4-one], for which the melting point was in the range of 214 to 216.9 °C. `COc1cc2[nH]c(N3CCC(CCn4ccnc4N)CC3)nc(=O)c2c(OC)c1OC` showed a melting point of 252.4 to 253.2 °C. Regarding `COC[C@@H]1CCCN1CCC1CCN(c2nc(=O)c3c(C)c(OC)c(OC)cc3[nH]2)CC1` [Example 51, 6,7-Dimethoxy-2-{4-[2-((S)-2-meth-oxymethyl-pyr-rolidin-1-yl)-ethyl]-pipe-ridin-1-yl}-5-meth-yl-1H-quinazolin-4-one], the melting point lay in the range of 83.1 to 110.9 °C.

Compound `COc1cc2[nH]c(N3CCN(c4cc(C)ccn4)CC3)nc(=O)c2c(C)c1OC` (as salt: HCl) [Example 43, 6,7-Dimethoxy-5-meth-yl-2-[4-(4-methyl-py-ridin-2-yl)-piperazin-1-yl]-1H-quina-zolin-4-one] yielded a melting point of 277.7 to 280 °C. `COc1cc2[nH]c(N3CCc4c(cccc4/N=C(\C)N(C)C)C3)nc(=O)c2c(C)c1OC` [Example 98, N′-[2-(6,7-Dimethoxy-5-meth-yl-4-oxo-1,4-di-hydro-quinazolin-2-yl)-1,2,3,4-tetra-hydro-iso-quinolin-5-yl]-N,N-di-methyl-acetamidine] had a melting point of 270.9 to 273.5 °C. Consider `CNCC(=O)N(C)Cc1cccc2c1CCN(c1nc(=O)c3c(C)c(OC)c(OC)cc3[nH]1)C2` [Example 8, N-[2-(6,7-Dimethoxy-5-meth-yl-4-oxo-1,4-di-hydro-quina-zolin-2-yl)-1,2,3,4-tetrahydro-iso-quinolin-5-ylmethyl]-N-meth-yl-2-methyl-amino-acetamide], for which the melting point lay in the range of 208.8 to 212 °C. On the same count and under the same terms, with `COc1cc2c(cc1OC)CN(c1nc(=O)c3c(OCC4CC4)c(OC)c(OC)cc3[nH]1)CC2` [Example 108, 5-Cyclopropylmethoxy-2-(6,7-di-methoxy-3,4-di-hydro-1H-isoquinolin-2-yl)-6,7-di-methoxy-1H-quinazolin-4-one] the figure was 214 to 215.8 °C.
